Series [1] is described as follows: Partition coefficient, log P of the compound. The format is physicochemical. The note with it: octanol/water.
The test system of the next series is Plasmodium falciparum. Briefly: Antimalarial activity against Plasmodium falciparum 3D7. The format is functional, organism-based.

On to `O=C(CC1CCC2(CC1)OOCCCOO2)N1CCOCC1`, for which, in series [1], the logP came to 1.16. Besides, the IC50 with Plasmodium falciparum was 689 nM.

The compound `CS(=O)(=O)c1ccc(CC2CCC3(CC2)OOCCCOO3)cc1` had a logP in series [1] of 2.65.

Take `C[C@@H]1CC[C@H]2[C@@H](C)C(=O)O[C@@H]3O[C@@]4(C)CC[C@@H]1[C@]32OO4` [ARTEMISININ]: in the series on Plasmodium falciparum, the IC50 was determined as 9.2 nM.

Turning to `FC(F)(F)c1ccc(CC2CCC3(CC2)OOCCCOO3)cc1`, the logP in series [1] is 4.79. Besides, in the series on Plasmodium falciparum, it took 52.4 nM to reach half-maximal inhibition (IC50).

As to `CO[C@H]1O[C@@H]2O[C@@]3(C)CC[C@H]4[C@H](C)CC[C@@H]([C@H]1C)[C@@]24OO3` [ARTEMETHER], the IC50 in the series with Plasmodium falciparum stood at 3.2 nM.

Consider `C=C1COOC2(CCC(Cc3ccc(C(=O)OC)cc3)CC2)OOC1`, for which, in series [1], the logP is 4.05. In the series with Plasmodium falciparum, this compound had an IC50 of 116 nM.

As for `COC(=O)c1ccc(CC2CCC3(CC2)OOCCCOO3)cc1`, the logP in series [1] came to 3.75. The compound further came in with an IC50 in the series with Plasmodium falciparum of 93.5 nM.

As for `Fc1ccc(CC2CCC3(CC2)OOCCCOO3)cc1`, in series [1], the logP is 4.01. For the same compound, in the series on Plasmodium falciparum, half-maximal inhibition (IC50) required 68.2 nM.

In series [1], `CCOC(=O)CC1CCC2(CC1)OOCCCOO2` returned a logP of 2.2. Also, in the series with Plasmodium falciparum, the IC50 amounted to 118 nM.

In the case of `N#Cc1ccc(CC2CCC3(CC2)OOCCCOO3)cc1`, in series [1], the logP was found to be 3.46. In addition, the IC50 with Plasmodium falciparum is 99.7 nM.

`c1ccc(CC2CCC3(CC2)OOCCCOO3)cc1` came in with a logP in series [1] of 3.93. The IC50 in the series on Plasmodium falciparum turned out to be 51.9 nM.

Consider `C=C1COOC2(CCC(Cc3ccc(C(F)(F)F)cc3)CC2)OOC1`, for which, in series [1], the logP was found to be 4.95. Further, in the series with Plasmodium falciparum, the midpoint of inhibition, the IC50, lay at 42.8 nM.

In the case of `C=C1COOC2(CCC(Cc3ccc(F)cc3)CC2)OOC1`, in series [1], the logP is 4.2. Also, the IC50 in the series on Plasmodium falciparum was found to be 43.4 nM.

The record behind these values is ChEMBL document CHEMBL1141504, “An efficient route into synthetically challenging bridged achiral 1,2,4,5-tetraoxanes with antimalarial activity” (Bioorg Med Chem Lett, 2008).
